One test has as its system HEK293-SIE STAT3 WT. Put plainly: drug sensitivity score (inhibition of STAT3 luciferase reporter); higher = stronger inhibition. Conditions: 6 h; STAT3: WT; IL6 100 ng/ml. How it is done: (§1)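 HEK293 cells with a STAT3-inducible (SIE) luciferase reporter, stably expressing WT STAT3 (IL6 100 ng/ml) or Y640F STAT3 (no IL6), were incubated 6 h with drugs in 384-well plates (5-8 concentrations over a 10,000-fold range); luciferase was read with ONE-Glo. DSS is a normalised area under the dose-response curve; values are the mean of two experiments.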
(In general: A reporter such as luciferase makes a cellular process visible.)

Another test deals with HEK293-SIE STAT3 Y640F. Described as above. Conditions: 6 h; IL6 0 ng/ml. How it is done: as §1
The test system of another test is KAI3. Put plainly: drug sensitivity score (viability inhibition); higher = more sensitive. Conditions: 72 h; IL2 2.5 ng/ml. How it is done:
(§2)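 NK-cell leukemia/lymphoma cell lines (3,000 cells/well) were cultured with IL2 2.5 ng/ml in 384-well drug plates (5-8 concentrations over a 10,000-fold range) for 72 h at 37 C; viability was read with CellTiter-Glo. DSS is a normalised area under the dose-response curve; the experiment was repeated twice.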

Another test deals with KHYG-1. The test is described as above. Conditions: 72 h; IL2 2.5 ng/ml. The protocol:
as §2

Another test concerns NK-92. Described as above. Conditions: 72 h; IL2 2.5 ng/ml. How it is done: as §2
The next test has as its system NK-YS. The description is as above. The settings on record: 72 h; IL2 2.5 ng/ml. How it is done: as §2
In a further test the test system is NKL. The test is described as above. The settings on record: 72 h; IL2 2.5 ng/ml. How it is done:
as §2

Another test concerns SNK6. The test is described as above. Conditions: 72 h; IL2 2.5 ng/ml. How it is done: as §2
In a further test the test system is YT. The test is described as above. The settings on record: 72 h; IL2 2.5 ng/ml. How it is done: as §2

Drug sensitivity score data for 17 compounds are collected here from the supplement of paper PMC5722580.

For the compound `Cc1cc(Nc2cc(CN3CCOCC3)c3nc(C)c(Cc4ccc(Cl)cc4F)n3n2)n[nH]1` [Gandotinib], the results for the drug sensitivity score in the test with HEK293-SIE STAT3 WT and in the test with HEK293-SIE STAT3 Y640F were 24 DSS and 8.4 DSS, respectively.
On to `CC(C)(C)c1cnc(CSc2cnc(NC(=O)C3CCNCC3)s2)o1` [SNS-032], for which the drug sensitivity score with KAI3 was determined as 21.1 DSS; in the test on KHYG-1, 20.5 DSS; in the test on NK-92, 19.2 DSS; in the test with NK-YS it was 30.3 DSS; in the test with NKL, 29.4 DSS; in the test with SNK6, 10.5 DSS. Moreover, the drug sensitivity score with YT is 26.1 DSS; in the test on HEK293-SIE STAT3 WT it was 21.8 DSS; with HEK293-SIE STAT3 Y640F, 18.9 DSS.
Take `CS(=O)(=O)N1CCN(Cc2cc3nc(-c4cccc5[nH]ncc45)nc(N4CCOCC4)c3s2)CC1` [Pictilisib]: the drug sensitivity score in the test on KAI3 is 2.33 DSS; in the test with KHYG-1, 3.56 DSS; with NK-92 it was 7.68 DSS; with NK-YS, 6.48 DSS; in the test on NKL it was 6.67 DSS; in the test on SNK6, 1.94 DSS. Also, the results for the drug sensitivity score in the test on YT, in the test with HEK293-SIE STAT3 WT and with HEK293-SIE STAT3 Y640F were 5.04 DSS, 4.5 DSS and 5 DSS, respectively.
In the case of `CN1CC[C@H](c2c(O)cc(O)c3c(=O)cc(-c4ccccc4Cl)oc23)[C@H](O)C1` [Alvocidib], the drug sensitivity score in the test on KAI3 stood at 24.1 DSS; in the test on KHYG-1, 21.8 DSS; with NK-92, 22.6 DSS; with NK-YS, 22.5 DSS; in the test on NKL, 21.4 DSS; in the test on SNK6, 13.2 DSS. The drug sensitivity score was 23 DSS with YT, 29.5 DSS in the test with HEK293-SIE STAT3 WT and 26.5 DSS in the test on HEK293-SIE STAT3 Y640F.
For the compound `C[C@@H]1CCN(C(=O)CC#N)C[C@@H]1N(C)c1ncnc2[nH]ccc12` [Tofacitinib], the drug sensitivity score came to 17.4 DSS in the test on KAI3; 23.4 DSS in the test with KHYG-1; 13.2 DSS with NK-92; 12.3 DSS in the test on NK-YS; 19.8 DSS in the test on NKL; 15.5 DSS in the test with SNK6. Further, the drug sensitivity score with YT was 8.43 DSS; in the test with HEK293-SIE STAT3 WT, 26 DSS; in the test on HEK293-SIE STAT3 Y640F, 9.05 DSS.
Regarding `Cn1c(=O)n(-c2ccc(C(C)(C)C#N)cc2)c2c3cc(-c4cnc5ccccc5c4)ccc3ncc21` [Dactolisib], the drug sensitivity score in the test with KAI3 was determined as 10.3 DSS; in the test with KHYG-1, 14 DSS; with NK-92, 12 DSS; in the test on NK-YS it was 15.8 DSS; with NKL, 18.2 DSS; with SNK6, 8.33 DSS. Besides, the figures for the drug sensitivity score with YT, in the test on HEK293-SIE STAT3 WT and with HEK293-SIE STAT3 Y640F were 13.4 DSS, 15.1 DSS and 12.8 DSS, respectively.
For `C[C@H]1C[C@@H]2[C@H]([C@@H](O)C[C@@]3(C)[C@H]2CC[C@]3(O)C(=O)CO)[C@@]2(C)C=CC(=O)C=C12` [Methylprednisolone], the drug sensitivity score in the test with KAI3 is 1.27 DSS; in the test on KHYG-1, 10.5 DSS; in the test on NK-92 it was 0 DSS; with NK-YS, 3.19 DSS; in the test on NKL it was 16 DSS; with SNK6 it was 0.065 DSS. In addition, the drug sensitivity score is 8.81 DSS with YT, 0 DSS in the test on HEK293-SIE STAT3 WT and 0.4 DSS in the test on HEK293-SIE STAT3 Y640F.
As to `O=[N+]([O-])c1ccc2c(c1)S(=O)(=O)C=C2` [Stattic], the drug sensitivity score is 14.3 DSS in the test with KAI3; 13.3 DSS in the test on KHYG-1; 13.2 DSS in the test on NK-92; 12.4 DSS with NK-YS; 10.7 DSS in the test with NKL; 14.1 DSS with SNK6. For the same compound, the drug sensitivity score worked out at 14.6 DSS with YT, 8.32 DSS in the test with HEK293-SIE STAT3 WT and 7.37 DSS in the test on HEK293-SIE STAT3 Y640F.
As to `Cn1cc(CNCC2CCN(c3ncc(C(=O)NO)cn3)CC2)c2ccccc21` [Quisinostat], the drug sensitivity score turned out to be 16.1 DSS in the test on KAI3; 20.4 DSS with KHYG-1; 13.8 DSS with NK-92; 22 DSS with NK-YS; 22 DSS with NKL; 13.3 DSS with SNK6. Moreover, the drug sensitivity score amounted to 14.2 DSS in the test with YT, 2.3 DSS in the test with HEK293-SIE STAT3 WT and 1.9 DSS in the test with HEK293-SIE STAT3 Y640F.
In the case of `C#Cc1cccc(Nc2ncnc3cc4c(cc23)OCCOCCOCCO4)c1` [Icotinib], the drug sensitivity score with KAI3 stood at 0.075 DSS; in the test with KHYG-1 it was 0.998 DSS; in the test on NK-92, 2.41 DSS; in the test on NK-YS, 0.207 DSS; with NKL, 0 DSS; in the test with SNK6, 2.53 DSS. The drug sensitivity score with YT is 0.21 DSS; in the test on HEK293-SIE STAT3 WT it was 2.75 DSS; with HEK293-SIE STAT3 Y640F, 0 DSS.
Turning to `CC1(COc2ccc3c(c2)ncn3-c2ccc3cccc(N4CCC(N)CC4)c3n2)COC1` [Crenolanib], the drug sensitivity score amounted to 5.4 DSS with KAI3; 7.73 DSS in the test with KHYG-1; 9.79 DSS in the test with NK-92; 7.55 DSS in the test on NK-YS; 10.3 DSS in the test with NKL; 9.96 DSS in the test on SNK6. The drug sensitivity score in the test on YT was determined as 7.98 DSS; in the test with HEK293-SIE STAT3 WT, 3.05 DSS; in the test on HEK293-SIE STAT3 Y640F it was 4.25 DSS.
`COc1ccccc1S(=O)(=O)Nc1ccc2c(c1)CN(C)C(=O)N2` [PFI-1]: the drug sensitivity score with KAI3 worked out at 1.7 DSS; in the test on KHYG-1, 7.25 DSS; with NK-92 it was 0.03 DSS; in the test with NK-YS it was 6.22 DSS; in the test on NKL it was 4.02 DSS; in the test on SNK6, 4.16 DSS. Besides, the drug sensitivity score came to 3.24 DSS in the test with YT, 6.65 DSS with HEK293-SIE STAT3 WT and 0 DSS with HEK293-SIE STAT3 Y640F.
On to `CC(C)NC[C@@H](C(=O)N1CCN(c2ncnc3c2[C@H](C)C[C@H]3O)CC1)c1ccc(Cl)cc1` [GDC-0068], for which the drug sensitivity score was found to be 0 DSS in the test with KAI3; 3.15 DSS in the test on KHYG-1; 0.75 DSS in the test on NK-92; 1.41 DSS in the test on NK-YS; 1.24 DSS in the test on NKL; 1.47 DSS in the test with SNK6. For the same compound, the drug sensitivity score amounted to 0.319 DSS with YT, 4.1 DSS in the test on HEK293-SIE STAT3 WT and 0.85 DSS in the test on HEK293-SIE STAT3 Y640F.
In the case of `CN(C)C[C@@H]1CCn2cc(c3ccccc32)C2=C(C(=O)NC2=O)c2cn(c3ccccc23)CCO1` [Ruboxistaurin], the drug sensitivity score is 4.46 DSS in the test on KAI3; 9.45 DSS in the test with KHYG-1; 4.64 DSS with NK-92; 8.41 DSS with NK-YS; 7.79 DSS in the test with NKL; 4.54 DSS with SNK6. For the same compound, the values for the drug sensitivity score with YT, with HEK293-SIE STAT3 WT and with HEK293-SIE STAT3 Y640F were 4.62 DSS, 3.95 DSS and 0.3 DSS, respectively.
With `CO[C@@H](C(=O)N1Cc2[nH]nc(NC(=O)c3ccc(N4CCN(C)CC4)cc3)c2C1)c1ccccc1` [Danusertib], the drug sensitivity score in the test with KAI3 was 7.82 DSS; with KHYG-1, 13 DSS; with NK-92, 6.91 DSS; with NK-YS, 12.9 DSS; with NKL, 5.43 DSS; with SNK6 it was 14.4 DSS. For the same compound, the figures for the drug sensitivity score in the test with YT, in the test with HEK293-SIE STAT3 WT and with HEK293-SIE STAT3 Y640F were 6.55 DSS, 6.8 DSS and 5.2 DSS, respectively.
Consider `CC[C@H](Nc1ncnc2[nH]cnc12)c1nc2cccc(F)c2c(=O)n1-c1ccccc1` [Idelalisib], for which the drug sensitivity score in the test with KAI3 was 1.38 DSS; in the test with KHYG-1, 0.4 DSS; in the test with NK-92 it was 9.76 DSS; in the test with NK-YS, 0.598 DSS; with NKL, 1.96 DSS; in the test on SNK6, 5.48 DSS. The drug sensitivity score is 1.42 DSS in the test on YT, 0 DSS with HEK293-SIE STAT3 WT and 3.9 DSS in the test on HEK293-SIE STAT3 Y640F.
Turning to `C[C@@H]1C=C2C(=O)O[C@@H]3CC[C@H](C1)[C@]23O` [Galiellalactone], the drug sensitivity score is 5 DSS in the test with KAI3; 4.09 DSS in the test on KHYG-1; 3.98 DSS with NK-92; 3.55 DSS in the test on NK-YS; 1.09 DSS with NKL; 6.92 DSS in the test with SNK6. Moreover, the drug sensitivity score amounted to 1.84 DSS in the test on YT, 0 DSS with HEK293-SIE STAT3 WT and 0 DSS in the test with HEK293-SIE STAT3 Y640F.
